Measured values reported in US20110092540A1, “SUBSTITUTED N-PHENYL-2,3-DIHYDROIMIDAZO[2,1-B]THIAZOLE-5-SULFONAMIDE DERIVATIVES AS 5-HT6 LIGANDS” (priority 2008, published 2011).
Counter-ions that a name gives are not always drawn.

Columns and labels:
[1] = target: T1, 5HT6-human recombinant receptor (Homo sapiens, UniProt P50406); experiment: Binding to serotonin receptor 5HT6 ([3H]-LSD radioligand displacement); design: purchased Receptor Biology; host or cells: HEK-293 cells (membranes); conditions: membranes of HEK-293 cells expressing 5HT6-human recombinant receptor; [3H]-LSD 2.7 nM; 60 min, 37° C.
T1 sequence (P50406 whole entry): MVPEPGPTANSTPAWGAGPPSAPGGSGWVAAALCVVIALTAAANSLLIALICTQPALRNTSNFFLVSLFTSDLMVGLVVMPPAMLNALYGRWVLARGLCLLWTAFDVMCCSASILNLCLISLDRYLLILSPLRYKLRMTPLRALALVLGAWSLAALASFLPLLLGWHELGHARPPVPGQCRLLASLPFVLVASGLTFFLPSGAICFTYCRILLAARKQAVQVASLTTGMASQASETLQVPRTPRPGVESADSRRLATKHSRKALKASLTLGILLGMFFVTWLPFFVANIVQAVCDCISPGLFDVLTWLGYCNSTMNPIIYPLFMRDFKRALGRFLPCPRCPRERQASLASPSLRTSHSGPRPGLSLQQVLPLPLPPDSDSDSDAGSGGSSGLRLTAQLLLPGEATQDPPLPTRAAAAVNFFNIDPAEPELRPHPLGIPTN
Protocol: Binding to Serotonin Receptor 5HT6
Cell membranes of HEK-293 cells expressing the 5HT6-human recombinant receptor were supplied by Receptor Biology. In said membranes the receptor concentration is 2.18 pmol/mg protein and the protein concentration is 9.17 mg/ml. The experimental protocol follows the method of B. L. Roth et al. [B. L. Roth et al., The Journal of Pharmacology and Experimental Therapeutics, 1994, 268. 1403] with the following slight changes. The respective part of the literature description is hereby incorporated by reference and forms part of the disclosure.
The commercial membrane is diluted (1:40 dilution) with the binding buffer: 50 mM Tris-HCl, 10 mM MgCl2, 0.5 mM EDTA (pH 7.4). The radioligand used is [^3H]-LSD at a concentration of 2.7 nM with a final volume of 200 μl. incubation is initiated by adding 100 μl of membrane suspension, (≈22.9 μg membrane protein), and is prolonged for 60 minutes at a temperature of 37° C. The incubation is ended by fast filtration in a Brandel Cell Harvester through fiber glass filters made by Schleicher & Schuell GF 3362 pretreated with a solution of polyethylenimine at 0.5%. The filters are washed three times with three milliliters of buffer Tris-HCl 50 mM pH 7.4. The filters are transferred to flasks and 5 ml of Ecoscint H liquid scintillation cocktail are added to each flask. The flasks are allowed to reach equilibrium for several hours before counting with a Wallac Winspectral 1414 scintillation counter. Non-specific binding is determined in the presence of 100 μM of serotonin. Tests were made in triplicate. The inhibition constants (Ki, nM) were calculated by non-linear regression analysis using the program EBDA/LIGAND described in Munson and Rodbard, Analytical Biochemistry, 1980, 107, 220, which is hereby incorporated by reference and forms part of the disclosure.

[2] = target: T1, 5HT6-human recombinant receptor; conditions: in words; Fisas, A. et al., Brit. J. Pharm. 2006; cited from earlier work
[3] = in words; Fisas, A. et al., Brit. J. Pharm. 2006; cited from earlier work

| Ki [1] [nM] | SMILES | binding for the recombinant human 5-HT6 receptor [2] | body weight [3] | food intake [3] |
| --- | --- | --- | --- | --- |
| 8.4 | O=S(=O)(Nc1ccc2c(c1)CCNC2)c1c(Cl)nc2n1CCS2 [Compound 1, 6-Chloro-2,3-dihydro-imidazo[2,1-b] thiazole-5-sulfonic acid (1,2,3,4-tetrahydro-isoquinolin-6-yl)-amide hydrochloride] |  |  |  |
| 5.4 | CC(=O)N1CCc2cc(NS(=O)(=O)c3c(Cl)nc4n3CCS4)ccc21 [Compound 4, 6-Chloro-2,3-dihydro-imidazo[2,1-b] thiazole-5-sulfonic acid (1-acetyl-2,3-dihydro-1H-indol-5-yl)-amide] |  |  |  |
| 46 | O=C1CCc2ccc(NS(=O)(=O)c3c(Cl)nc4n3CCS4)cc21 [Compound 10, 6-Chloro-2,3-dihydro-imidazo[2,1-b] thiazole-5-sulfonic acid (3-oxo-indan-5-yl)-amide] |  |  |  |

The remaining lines, values behind:

| SMILES | Ki [1] [nM] | binding for the recombinant human 5-HT6 receptor [2] | body weight [3] | food intake [3] |
| --- | --- | --- | --- | --- |
| CN(C)CCc1c[nH]c2ccc(NS(=O)(=O)c3c(Cl)nc4n3CCS4)cc12 [Compound 3, 6-Chloro-2,3-dihydro-imidazo[2,1-b] thiazole-5-sulfonic acid [3-(2-dimethylamino-ethyl)-1H-indol-5-yl]-amide hydrochloride] | 16.9 |  |  |  |
| CN(C)CCc1c[nH]c2ccc(NS(=O)(=O)c3ccc4c(Cl)cccc4c3)cc12 [Compound E-6837, 5-chloro-N[3-(2-(dimethylamino)ethyl)-1H-indol-5-yl] naphthalene-2-sulphonamide] |  | selective and high affinity binding | significant body weight loss | reduction in the food intake |
